Measured values published in article PMC9061853, “Luminescent bis(benzo[d]thiazolyl)quinoxaline: facile synthesis, nucleic acid and protein BSA interaction, live-cell imaging, biopharmaceutical research and cancer theranostic application” (RSC Advances, 2019).

Experiments:
HEK-293 = assay: MTT cytotoxicity assay, HEK-293 normal cells; assay type: cell-based, human; settings: Homo sapiens, HEK293; 24 h incubation
Protocol: (§1) Cytotoxicity studies were performed for all the synthesized quinoxaline compounds (7a–7g) using standard 3-(4,5-dimethylthiazol-2-yl)-2,5-diphenyltetrazolium bromide (MTT) assay beside a panel of cancer cell lines such as human epithelioid cervix carcinoma (HeLa), human colorectal adenocarcinoma cell line (Caco-2) and one normal human embryonic kidney cells (HEK-293) in triplicates (Table 3). […] It is noteworthy to mention that Compound 7a and 7g presented best cytoselectivity in HeLa and Caco-2 cell lines respectively. […]
(§2) In vitro cytotoxic activities (MTT assay):
(§3) The basic detection of cytotoxicity of anticancer compounds in vitro is MTT assay. The MTT proliferation assay is based on the reduction of the yellow MTT tetrazolium salt (3-[4,5-dimethylthiazol-2-yl]-2,5diphenyltetrazolium bromide) by mitochondrial dehydrogenases to form a purple MTT formazan crystals in viable cells. Synthesized compounds (7a-g) were prior dissolved in 0.1% DMSO and then serial dilution with medium and used in the experiment. Three different types of cancer cell lines were used in this experiment i.e., human Epitheloid Cervix Carcinoma (HeLa), human colon cancer cell line (Caco-2) and one normal kidney cell (HEK-293) were used in the assay. The cells were harvested at the log phase and it is cell counted using haemocytometer. Approximately 1 × 10^3 cells per well were seeded using all the cell lines. They were cultured in 100 μL of a DMEM media in 96-well plates and incubated at 37 °C for 24 hours under a 5% CO2 atmosphere. The cells were then washed with 1X PBS buffer and fresh media was added to the cells. The cells were then treated with different concentrations of the drugs (0.65-150 µM) in the volume of […] /well. Cisplatin has been used as a standard positive control drug. The control wells contains the same cell count of 1 × 10^3 cells per well of 100 μL medium containing 0.1% DMSO. After 24 h (for HeLa cell and HEK-293) and 72 h (for Caco-2), the medium was discarded and it is washed with 1X PBS and it was incubated with 100 µl of MTT reagent (1 mg/ml) for 4 h at 37°C.
(§4) Then the 96 well plate was placed on the shaker for 10 min and subsequently the absorbance was recorded by the ELISA reader at λ = 490 nm. The experiments were performed in […]
(§5) triplicate. […]

[1] = Fluorescence quantum yield in water; assay type: physicochemical; settings: 298 K, quinine sulphate as standard
Protocol: To know the absorption and emission behaviour of these synthesized compounds (7a–g), a standard concentration (3 × 10^−6 mol l^−1) in water has been used. In UV-vis spectra, λmax of all these compounds are observed at 320–330 nm due to π–π* transition (Fig. S1a ^†). The corresponding emission peaks are observed at 400–500 nm (Fig. S1b ^†). The emission of quantum yield (Φ) was calculated for all of the compounds (7a–g) using eqn (1) (Table S1 ^†). […]
2.6.2. Fluorescence study:
To know the emission property of all the synthesized complexes (7a-g), an initial investigation was performed using spectrofluorometric method in water by using absorption maximum as their excitation energy. Fluorescence quantum yield (Ф) of all the prepared compounds performed in water solution were calculated by employing the comparative William's method which involves the use of well-characterized standard with the known quantum yield value. Quinine sulphate was used as reference fluorophore excited at 350 nm and emission at 452 nm, quantum yield (ФR) = 0.50 in 1N H2SO4. The gradients of the plots are proportional to the quantum yield (Ф) of the studied system. The data obtained and quantum yield value calculated according to the equation (2): […]
Where, φ = Quantum yield, I = Peak Area, OD = absorbance at λmax, η = Refractive index of solvent and reference. Here, we have used Quinine Sulphate as a standard for calculating emission of quantum yield. […]

[2] = MTT cytotoxicity assay, Caco-2; assay type: cell-based, human; settings: human, Caco-2, ratio of IC50 for HEK-293 to IC50 for Caco-2; read-out: SF (selectivity factor) Caco-2
Source text: as §2
as §3, with “/well.” for “/well. Cisplatin has been used as a standard positive control drug. The control wells contains the same cell count of 1 × 10^3 cells per well of 100 μL medium containing 0.1% DMSO. After 24 h (for HeLa cell and HEK-293) and 72 h (for Caco-2), the medium was discarded and it is washed with 1X PBS and it was incubated with 100 µl of MTT reagent (1 mg/ml) for 4 h at 37°C.”
(§6) The control wells contains the same cell count of 1 × 10^3 cells per well of 100 μL medium containing 0.1% DMSO. After 24 h (for HeLa cell and HEK-293) and 72 h (for Caco-2), the medium was discarded and it is washed with 1X PBS and it was incubated with 100 µl of MTT reagent (1 mg/ml) for 4 h at 37°C.
as §4, §5

Caco-2 = assay: MTT cytotoxicity assay, Caco-2; assay type: cell-based, human; settings: Homo sapiens, Caco-2; 72 h incubation
Source text: as §2
as §3, with “/well.” for “/well. Cisplatin has been used as a standard positive control drug. The control wells contains the same cell count of 1 × 10^3 cells per well of 100 μL medium containing 0.1% DMSO. After 24 h (for HeLa cell and HEK-293) and 72 h (for Caco-2), the medium was discarded and it is washed with 1X PBS and it was incubated with 100 µl of MTT reagent (1 mg/ml) for 4 h at 37°C.”
as §6, §4, §5

HeLa = assay: MTT cytotoxicity assay, HeLa; assay type: cell-based, human; settings: for IC50: Homo sapiens, HeLa, 24 h incubation; for SF (selectivity factor) HeLa: ratio of IC50 for HEK-293 to IC50 for HeLa
Protocol: as §1, §2, §3, §4, §5

Caco-2 cell monolayer = assay: Caco-2 permeability study; assay type: in vitro ADME; settings: 10 μM, A to B and B to A; samples below the lower limit of quantitation
Protocol: (§7) Compound 7g permeation ability (i.e. permeability) was assessed through Caco-2 cell monolayer. Permeability study was planned in both directions from apical to basolateral (A to B) and basolateral to apical (B to A) side. A to B is for checking drug permeation characteristics from the intestine (site of absorption) to systemic circulation and B to A is for checking drug efflux back to the intestine.

[3] = Caco-2 permeability study; assay type: in vitro ADME; settings: human, Caco-2, 10 μM, N = 3
Protocol: as §7

Compound	IC50 (HEK-293)	Φ, emission quantum yield [1]	selectivity ratio [2]	IC50 (Caco-2)	IC50 (HeLa)	SF (selectivity factor) HeLa (HeLa)	melting point	permeability across Caco-2 cell monolayer (Caco-2 cell monolayer)	recovery at 10 μM ([3]; A to B)	recovery at 10 μM ([3]; B to A)
Clc1cc2nc(COc3ccccc3-c3nc4ccccc4s3)c(COc3ccccc3-c3nc4ccccc4s3)nc2cc1Cl [Compound 7e]	> 200 µM	0.04	> 9	20.9 ± 1.6 µM	38.9 ± 0.1 µM	>5.1	145 to 150 °C			
COc1ccc2nc(COc3ccccc3-c3nc4ccccc4s3)c(COc3ccccc3-c3nc4ccccc4s3)nc2c1 [Compound 7g, 2,2'-((((6-methoxyquinoxaline-2,3-diyl)bis(methylene))bis(oxy))bis(2,1-phenylene))bis(benzo[d]thiazole)]	> 200 µM	0.013	> 9	20.8 ± 1.6 µM	36.8 ± 0.2 µM	>5.4	155 to 160 °C	low permeability	101%	96%
